How the values were obtained:
[1] = Circulating berberine after chronic administration by various routes (Example 23); type: in vivo; details: male, rat, plasma, oral, 180 mg/kg/dose; 15 days administration BID, Zucker fa/fa rats
[2] = test system: male Zucker fa/fa rat, a model of type 2 diabetes and metabolic disorder; assay: Efficacy of transdermal berberine alone and in combination with pharmaceuticals in a model of metabolic syndrome (Example 19); type: in vivo, obese male Zucker fa/fa rats; details: Zucker fa/fa rats
Method: Fourteen obese male Zucker fa/fa rats at 5 weeks of age were housed for five weeks to the age of 10 weeks. During these five weeks, body weight measurements were taken once a week and once daily health observations were conducted for all animals. […] On Day 28, serum and whole liver was collected. […] Food and water intake measurements were taken once a week during the study period of Day 0 to Day 28. […] A sufficient amount of test article was supplied and formulated. Test article product was administered at a dose of 3.6 g/kg twice a day (e.g. […] Berberine cream was weighed fresh daily at each AM and PM dosing to avoid desiccation of the test article. Daily PO and TD dosing of the test articles took place between the hours of 08:00 to 10:00 and 16:00 to 18:00 for 7 days a week between Day 0 to 27. […] The exact time of dosing (up to the minute) was recorded for each animal on the daily dosing sheets. […] Remaining dosing solutions were stored at 4° C. between dosing periods. […] The animals shaved underwemt gaseous anaesthetic according to SOP ROD28.01 to ensure accuracy and avoid undue stress of the animal. The area was further shaven as needed over the course of the dosing period to ensure accurate drug application and absorption. At dosing, the animals were restrained and the transdermal test articles were applied in a uniform layer over the entire shaved area. […] PTS3028).

[3] = rats; cited from earlier work
[4] = Plasma concentrations of berberine, berberine glucuronide, simvastatin and simvastatin hydroxy acid in rats (Example 20); type: in vivo; details: rats (n=2); oral 180 mg/kg/dose or transdermal 3.6 g/kg/dose
[5] = cited from earlier work
[6] = uptake inhibited by P-gp-mediated efflux; cited from earlier work
[7] = test system: PCSK9 expression in HEPG2 cells; assay: Berberine signaling in HEPG2: PCSK9 western blot of supernatant; type: cell-based, human; details: 24 hours; for expression of PCSK9 in supernatant (western blot): 25 to 3.125 ug/ml, versus negative control
Method: HEPG2 cells were cultured in 24 well plates to confluence in DMEM supplemented with 10% FBS. After reaching confluence, cells were incubated overnight with 0.1% FBS OPTIMEM for serum starvation. After serum starvation the cells were incubated with berberine, DHB, or THB in 0.1% FBS OPTIMEM using the following dose course: 25 ug/ml, 12.5 ug/ml 6.25 ug/ml 3.125 ug/ml for 24 hours. Supernatant was collected after stimulation and western blotted as follows:
(1) Resolved on 12.5% gel.
(3) Blocked with 3% BSA TBST (4) Rabbit anti PCSK9 (Cayman chemicals cat 10007185) at 1/600 in TTBS (5) Wash 3×5 min with TTBS (6) HRP-Goat anti-Rabbit 1/1000 (Cayman chemicals) (7) Wash 3×5 min with TTBS (8) Detection with ECL
Proprotein convertase subtilisin/kexin type 9 (PCSK9) post-transcriptionally downregulates the low-density lipoprotein receptor (LDLR) by binding to the receptor's epidermal growth factor repeat A on the cell surface and shuttling the LDLR to the lysosomes for degradation. […] Previous reports indicate that berberine has lipid lowering effects in both animal models and human trials (Arrigo F. G., Cicero, L., Rovati C. et al., 2007). The signalling effects of berberine, DHB, and THB were evaluated using the human liver cell line HEPG2. PCSK9, an enzyme that acts in cholesterol homeostasis, is expressed in HEPG2 cells and these cells have previously been used as a model of dyslipidemia. PCSK9 binds to LDL receptor causing uptake of LDL and the LDL receptor and targets both molecules for degradation upon internalization. In the absence of PCSK9, LDL and LDL receptor are still internalized, however, LDL receptor is not degraded but instead recycled to the cell surface resulting in more efficient uptake of circulating LDL.

male Zucker rats (fa/fa) = assay: Efficacy of administration routes and dihydroberberine in a model of metabolic syndrome (Example 22); type: in vivo; details: BID
Method: This study examined the efficacy of administration of a derivative of berberine (dihydroberberine) in transdermal formulations in 24 male Zucker rats (fa/fa), similar to the study protocol in Example 19. The following formulations were prepared: […] Animals were maintained without treatment until ten weeks of age at which time groups were randomized by weight and blood glucose. Animal weights were recorded daily and expressed here as percent change from Day zero.

[8] = averaged over the entire experiment
[9] = first four weeks of treatment, 0.5 g t.i.d.

- concentration at 15 days [1]: 101 ng/mL
- berberine plasma concentration [4]: 0.44 ng/mL
Structure (SMILES): COc1ccc2cc3[n+](cc2c1OC)CCc1cc2c(cc1-3)OCO2 [berberine, Berberine]
- rate of weight gain (grams/day) ([2]; BID, Day 0 to 28, n=2): 3.3 grams/day
- overall triglyceride levels (mmol/L+/−SEM) ([2]; averaged for the entire experiment): 9.5 ± 1.0 mmol/L
- overall HbA1c level change (mmol/mmol+/−SEM) [2, 8]: 31.3+/−0.7 mmol/mmol
- overall average food intake (grams+/−SEM) [2, 8]: 30.8+/−1.5 grams
- overall cholesterol level change (mmol/L+/−SEM) [2, 8]: 5.0 ± 0.3 mmol/L
- overall average glucose change (%+/−SEM) ([2]; non-fasting glucose, averaged over the entire experiment): −24.0+/−0.6%
- bioavailability of orally administered berberine [3]: approximately 0.7%
- abdominal pain, percentage of patients [5, 9]: 3.4%
- constipation, percentage of patients [5, 9]: 6.9%
- diarrhea, percentage of patients [5, 9]: 10.3%
- flatulence, percentage of patients [5, 9]: 19.0%
- patients with adverse gastrointestinal side-effects ([5]; type 2 diabetes patients, 13 week berberine treatment): 34.5%
- bioavailability [6]: less than 5%
- concentration down to which expression of PCSK9 was reduced [7]: 6.25 µg/mL
- expression of PCSK9 in supernatant (western blot) [7]: reduce the expression of PCSK9
- expression of PCSK9 in supernatant (western blot) ([7]; listed as Berberine): down-regulate the expression of PCSK9
- cholesterol levels on Day 14 (mmol/L+/−SEM) (male Zucker rats (fa/fa)): 8.3 ± 0.7 mmol/L
- rate of weight gain (grams/day) (male Zucker rats (fa/fa)): 1.7 grams/day
- triglyceride levels on Day 14 (mmol/L+/−SEM) (male Zucker rats (fa/fa)): 14.8 ± 3.0 mmol/L

From patent publication US20180235870A1, “TRANSDERMAL FORMULATIONS FOR DELIVERY OF BERBERINE COMPOUNDS, AND THEIR USE IN THE TREATMENT OF BERBERINE-RESPONSIVE DISEASES AND CONDITIONS” (DELIVRA INC., priority 2015, published 2018)
